# In ChEMBL document CHEMBL5465560, “Selectivity Literature for EUbOPEN Chemogenomic Library” (2024):
# Columns and labels:
# [1] = biological target: Ephrin type-A receptor 7 (Homo sapiens) (UniProt Q15375); details: at 10 µM
# [2] = biological target: Myosin light chain kinase family member 4 (Homo sapiens, UniProt Q86YV6); assay: Selectivity interaction (NanoBRET assay (HEK293T cells)) EUB0001550a MYLK4; assay type: cell-based, HEK-293T
# [3] = biological target: Mitogen-activated protein kinase kinase kinase 20 (Homo sapiens) (UniProt Q9NYL2); assay: Selectivity interaction (ProQinase) EUB0000171b MAP3K20
# Sequence of Mitogen-activated protein kinase kinase kinase 20 (Homo sapiens) (Q9NYL2 2-800 limits assumed): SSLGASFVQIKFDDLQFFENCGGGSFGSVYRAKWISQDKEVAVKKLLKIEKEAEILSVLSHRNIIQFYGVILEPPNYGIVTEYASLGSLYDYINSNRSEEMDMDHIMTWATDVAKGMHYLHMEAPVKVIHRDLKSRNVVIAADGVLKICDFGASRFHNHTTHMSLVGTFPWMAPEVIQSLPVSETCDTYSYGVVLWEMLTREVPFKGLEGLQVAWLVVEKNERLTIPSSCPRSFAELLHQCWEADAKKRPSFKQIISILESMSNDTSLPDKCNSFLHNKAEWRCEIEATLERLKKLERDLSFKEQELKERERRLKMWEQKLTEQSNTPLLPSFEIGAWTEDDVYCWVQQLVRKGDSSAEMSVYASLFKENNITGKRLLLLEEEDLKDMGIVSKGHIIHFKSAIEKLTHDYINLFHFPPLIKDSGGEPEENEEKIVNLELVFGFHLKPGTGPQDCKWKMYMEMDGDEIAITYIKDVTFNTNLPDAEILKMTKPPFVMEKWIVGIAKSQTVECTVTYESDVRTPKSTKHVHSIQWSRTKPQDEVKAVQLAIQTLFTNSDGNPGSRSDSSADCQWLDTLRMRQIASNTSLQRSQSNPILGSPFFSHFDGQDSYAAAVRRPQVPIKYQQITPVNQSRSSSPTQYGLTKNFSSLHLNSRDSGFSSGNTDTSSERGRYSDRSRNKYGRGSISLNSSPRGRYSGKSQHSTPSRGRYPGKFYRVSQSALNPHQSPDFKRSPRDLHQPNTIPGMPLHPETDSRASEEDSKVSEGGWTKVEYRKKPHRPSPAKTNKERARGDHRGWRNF
# [4] = biological target: D(2) dopamine receptor (Homo sapiens, UniProt P14416); assay: Selectivity interaction (Panel of kinases, GPCRs, ion channels and transporters (enzymatic assay)) EUB0000266bCl DRD2
# Sequence of D(2) dopamine receptor (P14416 whole entry): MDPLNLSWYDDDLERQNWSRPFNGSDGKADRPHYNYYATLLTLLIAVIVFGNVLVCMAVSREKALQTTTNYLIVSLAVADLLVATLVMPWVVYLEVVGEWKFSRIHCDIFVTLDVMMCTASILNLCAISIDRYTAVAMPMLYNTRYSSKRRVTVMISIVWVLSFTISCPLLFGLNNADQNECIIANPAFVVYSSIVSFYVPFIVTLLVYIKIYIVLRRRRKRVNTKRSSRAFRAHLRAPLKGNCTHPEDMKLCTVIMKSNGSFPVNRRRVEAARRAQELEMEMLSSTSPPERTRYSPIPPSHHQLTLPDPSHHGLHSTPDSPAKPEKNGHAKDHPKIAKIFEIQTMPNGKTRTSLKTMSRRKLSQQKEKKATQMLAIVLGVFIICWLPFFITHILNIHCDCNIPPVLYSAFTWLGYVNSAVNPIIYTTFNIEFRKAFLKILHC
# [5] = biological target: T1, Serine/threonine-protein kinase ULK2 (Homo sapiens) (UniProt Q8IYT8); assay: Selectivity interaction (KinomeScan (DiscoverX)) EUB0000666a ULK2; details: at 10 µM
# T1 sequence (whole entry): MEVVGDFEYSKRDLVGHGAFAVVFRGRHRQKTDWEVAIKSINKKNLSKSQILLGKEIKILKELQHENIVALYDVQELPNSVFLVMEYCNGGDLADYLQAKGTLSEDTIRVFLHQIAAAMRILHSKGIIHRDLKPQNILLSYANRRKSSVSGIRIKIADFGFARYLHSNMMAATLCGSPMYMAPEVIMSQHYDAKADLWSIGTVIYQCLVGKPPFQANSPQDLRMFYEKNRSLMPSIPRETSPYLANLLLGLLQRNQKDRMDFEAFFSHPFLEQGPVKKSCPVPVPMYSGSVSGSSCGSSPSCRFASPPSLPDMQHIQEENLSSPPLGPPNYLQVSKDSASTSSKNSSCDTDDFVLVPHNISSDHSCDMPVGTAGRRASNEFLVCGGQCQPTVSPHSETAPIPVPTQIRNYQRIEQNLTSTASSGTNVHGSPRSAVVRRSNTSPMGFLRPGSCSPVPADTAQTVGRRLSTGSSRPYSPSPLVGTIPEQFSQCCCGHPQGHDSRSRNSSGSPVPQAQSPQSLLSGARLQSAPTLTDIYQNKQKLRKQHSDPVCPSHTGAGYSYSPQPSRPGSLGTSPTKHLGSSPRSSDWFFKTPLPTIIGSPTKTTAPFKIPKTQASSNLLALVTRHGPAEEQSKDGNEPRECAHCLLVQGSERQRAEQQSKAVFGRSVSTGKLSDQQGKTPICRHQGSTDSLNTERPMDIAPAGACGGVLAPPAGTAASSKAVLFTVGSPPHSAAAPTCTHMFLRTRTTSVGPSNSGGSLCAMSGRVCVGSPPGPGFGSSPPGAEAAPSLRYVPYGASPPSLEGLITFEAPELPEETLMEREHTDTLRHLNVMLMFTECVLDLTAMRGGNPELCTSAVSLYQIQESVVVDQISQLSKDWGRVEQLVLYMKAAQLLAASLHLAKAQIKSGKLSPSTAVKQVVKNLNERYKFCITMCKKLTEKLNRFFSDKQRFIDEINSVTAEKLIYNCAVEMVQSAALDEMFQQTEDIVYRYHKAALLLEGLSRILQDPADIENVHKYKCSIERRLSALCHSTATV
# [6] = biological target: T2, Testis-specific serine/threonine-protein kinase 1 (Homo sapiens) (UniProt Q9BXA7); details: at 10 µM
# T2 sequence (whole entry): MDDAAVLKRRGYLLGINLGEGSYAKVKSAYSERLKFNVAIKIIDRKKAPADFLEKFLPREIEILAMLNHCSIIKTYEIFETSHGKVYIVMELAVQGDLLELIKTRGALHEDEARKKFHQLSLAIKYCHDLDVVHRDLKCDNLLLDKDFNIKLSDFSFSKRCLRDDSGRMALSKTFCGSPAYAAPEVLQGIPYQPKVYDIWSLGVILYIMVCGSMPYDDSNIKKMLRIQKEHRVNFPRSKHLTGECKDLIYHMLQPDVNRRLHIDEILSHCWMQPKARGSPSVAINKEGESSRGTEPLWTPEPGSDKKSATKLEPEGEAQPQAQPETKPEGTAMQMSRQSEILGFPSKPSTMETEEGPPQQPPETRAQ
# [7] = biological target: Serine/threonine-protein kinase PRP4 homolog (Homo sapiens) (UniProt Q13523); assay: Selectivity interaction (ActivX KiNativ screen (kinase selectivity in THP-1 cell lysates)) EUB0000639a PRPF4; assay type: subcellular; details: lysate, at 5 µM
# [8] = biological target: Serine/threonine-protein kinase Nek4 (Homo sapiens) (UniProt P51957); assay: Selectivity interaction (KinomeScan (DiscoverX)) EUB0000607a NEK4; details: at 10 µM
# Sequence of Serine/threonine-protein kinase Nek4 (Homo sapiens) (P51957 whole entry, looked up): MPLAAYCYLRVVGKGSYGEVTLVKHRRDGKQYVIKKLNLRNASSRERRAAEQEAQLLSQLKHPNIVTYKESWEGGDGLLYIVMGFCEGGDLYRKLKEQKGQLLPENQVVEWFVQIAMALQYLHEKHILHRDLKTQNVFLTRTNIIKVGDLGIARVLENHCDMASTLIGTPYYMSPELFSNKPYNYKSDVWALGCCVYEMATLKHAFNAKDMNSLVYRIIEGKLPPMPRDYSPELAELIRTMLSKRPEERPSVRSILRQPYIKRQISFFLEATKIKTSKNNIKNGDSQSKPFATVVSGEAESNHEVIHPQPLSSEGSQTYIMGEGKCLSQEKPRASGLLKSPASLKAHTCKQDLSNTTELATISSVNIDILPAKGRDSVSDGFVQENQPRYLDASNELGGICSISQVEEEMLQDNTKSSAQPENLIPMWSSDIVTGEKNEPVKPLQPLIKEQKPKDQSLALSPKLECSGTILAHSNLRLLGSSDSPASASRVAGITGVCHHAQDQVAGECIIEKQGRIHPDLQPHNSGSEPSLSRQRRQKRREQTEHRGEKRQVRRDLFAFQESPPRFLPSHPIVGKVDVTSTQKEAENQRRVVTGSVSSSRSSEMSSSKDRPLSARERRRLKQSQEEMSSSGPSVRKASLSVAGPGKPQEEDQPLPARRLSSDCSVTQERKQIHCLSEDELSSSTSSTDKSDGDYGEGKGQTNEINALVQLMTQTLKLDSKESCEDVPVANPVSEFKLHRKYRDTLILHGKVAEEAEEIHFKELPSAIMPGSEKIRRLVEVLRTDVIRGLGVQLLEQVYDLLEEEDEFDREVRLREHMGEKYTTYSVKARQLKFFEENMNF
# [9] = biological target: 5'-AMP-activated protein kinase catalytic subunit alpha-2 (Homo sapiens) (UniProt P54646); assay: Selectivity interaction (KinomeScan (DiscoverX)) EUB0000607a PRKAA2; details: at 10 µM
# [10] = biological target: Ephrin type-A receptor 2 (Homo sapiens) (UniProt P29317); assay: Selectivity interaction (KinomeScan (DiscoverX)) EUB0000595a EPHA2; details: at 10 µM
# Sequence of Ephrin type-A receptor 2 (Homo sapiens) (P29317 whole entry): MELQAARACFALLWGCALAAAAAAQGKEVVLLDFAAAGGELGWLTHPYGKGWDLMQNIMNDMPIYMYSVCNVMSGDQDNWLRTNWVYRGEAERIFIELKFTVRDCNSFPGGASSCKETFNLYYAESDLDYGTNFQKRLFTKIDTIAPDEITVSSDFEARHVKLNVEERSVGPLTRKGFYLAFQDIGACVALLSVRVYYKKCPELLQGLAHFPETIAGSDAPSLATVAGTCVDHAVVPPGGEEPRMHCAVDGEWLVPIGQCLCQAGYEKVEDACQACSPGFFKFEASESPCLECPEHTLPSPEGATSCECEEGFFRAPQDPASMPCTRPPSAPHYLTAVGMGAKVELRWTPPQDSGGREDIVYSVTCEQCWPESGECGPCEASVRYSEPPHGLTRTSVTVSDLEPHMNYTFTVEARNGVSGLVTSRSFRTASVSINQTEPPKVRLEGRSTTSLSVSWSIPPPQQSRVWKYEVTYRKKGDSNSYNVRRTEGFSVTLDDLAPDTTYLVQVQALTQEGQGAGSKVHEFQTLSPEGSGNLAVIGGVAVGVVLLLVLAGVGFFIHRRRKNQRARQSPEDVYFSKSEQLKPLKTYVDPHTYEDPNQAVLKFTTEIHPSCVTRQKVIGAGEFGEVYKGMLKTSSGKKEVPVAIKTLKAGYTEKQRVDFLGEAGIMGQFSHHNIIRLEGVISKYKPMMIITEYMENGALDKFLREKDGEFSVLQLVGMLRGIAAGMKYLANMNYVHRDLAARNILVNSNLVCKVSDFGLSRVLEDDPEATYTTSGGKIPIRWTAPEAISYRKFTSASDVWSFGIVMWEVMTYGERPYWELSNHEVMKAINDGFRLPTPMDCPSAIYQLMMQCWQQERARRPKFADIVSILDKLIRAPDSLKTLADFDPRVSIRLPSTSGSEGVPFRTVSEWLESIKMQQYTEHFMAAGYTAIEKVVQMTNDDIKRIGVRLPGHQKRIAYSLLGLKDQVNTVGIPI
# [11] = biological target: Serine/threonine-protein kinase SIK3 (Homo sapiens) (UniProt Q9Y2K2); assay: Selectivity interaction (Ambit KINOMEscan and KiNATiv profiling in Jurkat cells) EUB0000090b SIK3; assay type: cell-based; details: at 1 µM
# Sequence of Serine/threonine-protein kinase SIK3 (Homo sapiens) (Q9Y2K2 whole entry, looked up): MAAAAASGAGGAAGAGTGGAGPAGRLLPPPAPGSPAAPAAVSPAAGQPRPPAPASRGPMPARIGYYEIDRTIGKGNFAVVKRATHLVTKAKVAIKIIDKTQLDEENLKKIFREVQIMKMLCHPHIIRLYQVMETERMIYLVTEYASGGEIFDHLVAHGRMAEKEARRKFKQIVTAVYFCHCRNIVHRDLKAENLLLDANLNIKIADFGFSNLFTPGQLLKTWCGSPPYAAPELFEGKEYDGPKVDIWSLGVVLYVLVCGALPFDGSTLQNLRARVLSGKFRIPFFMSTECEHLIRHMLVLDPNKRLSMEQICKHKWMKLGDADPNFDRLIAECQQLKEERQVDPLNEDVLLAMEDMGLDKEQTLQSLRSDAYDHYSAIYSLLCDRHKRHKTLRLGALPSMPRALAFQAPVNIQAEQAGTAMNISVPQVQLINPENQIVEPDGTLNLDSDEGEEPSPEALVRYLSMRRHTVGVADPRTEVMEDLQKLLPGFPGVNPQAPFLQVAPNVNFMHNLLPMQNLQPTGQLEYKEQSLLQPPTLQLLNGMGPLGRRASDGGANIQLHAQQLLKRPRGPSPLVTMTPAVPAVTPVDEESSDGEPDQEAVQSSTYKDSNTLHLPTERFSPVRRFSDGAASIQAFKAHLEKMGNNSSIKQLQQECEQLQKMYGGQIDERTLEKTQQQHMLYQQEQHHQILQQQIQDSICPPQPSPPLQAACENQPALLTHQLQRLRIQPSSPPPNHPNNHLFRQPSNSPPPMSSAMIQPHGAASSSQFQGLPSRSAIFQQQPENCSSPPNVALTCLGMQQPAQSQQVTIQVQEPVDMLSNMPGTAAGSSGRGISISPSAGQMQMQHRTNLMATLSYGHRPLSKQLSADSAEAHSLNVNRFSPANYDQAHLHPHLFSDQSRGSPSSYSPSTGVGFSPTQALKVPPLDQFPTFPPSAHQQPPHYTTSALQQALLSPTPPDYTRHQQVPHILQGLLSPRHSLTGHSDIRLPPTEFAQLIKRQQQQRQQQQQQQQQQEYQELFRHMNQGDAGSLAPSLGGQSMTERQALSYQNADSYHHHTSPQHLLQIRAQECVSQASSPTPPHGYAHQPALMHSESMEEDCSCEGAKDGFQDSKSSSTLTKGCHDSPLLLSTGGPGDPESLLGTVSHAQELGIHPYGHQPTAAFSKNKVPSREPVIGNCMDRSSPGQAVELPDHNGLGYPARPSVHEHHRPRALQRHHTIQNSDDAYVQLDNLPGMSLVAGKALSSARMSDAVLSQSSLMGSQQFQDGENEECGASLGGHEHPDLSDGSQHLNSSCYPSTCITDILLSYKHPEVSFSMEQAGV
# [12] = biological target: Cyclin-dependent kinase 1 (Homo sapiens) (UniProt P06493); assay: Selectivity interaction (Kinase screening (Nanosyn)) EUB0000604a CDK1
# Sequence of Cyclin-dependent kinase 1 (Homo sapiens) (P06493 whole entry, looked up): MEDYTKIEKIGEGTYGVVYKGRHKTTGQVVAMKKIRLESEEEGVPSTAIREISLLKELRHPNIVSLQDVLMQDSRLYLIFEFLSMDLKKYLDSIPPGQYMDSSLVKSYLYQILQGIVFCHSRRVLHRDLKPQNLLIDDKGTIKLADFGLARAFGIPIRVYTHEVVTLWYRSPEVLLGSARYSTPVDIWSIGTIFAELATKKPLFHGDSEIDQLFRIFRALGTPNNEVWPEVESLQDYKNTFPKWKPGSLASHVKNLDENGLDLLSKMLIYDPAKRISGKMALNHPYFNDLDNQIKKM
# [13] = biological target: T3, Phosphatidylinositol 5-phosphate 4-kinase type-2 alpha (Homo sapiens) (UniProt P48426); assay: Selectivity interaction (ActivX KiNativ screen (ex vivo kinase selectivity in human PBMCs)) EUB0001619a PIP4K2A; assay type: cell-based; details: PBMC, at 1 µM
# T3 sequence (whole entry): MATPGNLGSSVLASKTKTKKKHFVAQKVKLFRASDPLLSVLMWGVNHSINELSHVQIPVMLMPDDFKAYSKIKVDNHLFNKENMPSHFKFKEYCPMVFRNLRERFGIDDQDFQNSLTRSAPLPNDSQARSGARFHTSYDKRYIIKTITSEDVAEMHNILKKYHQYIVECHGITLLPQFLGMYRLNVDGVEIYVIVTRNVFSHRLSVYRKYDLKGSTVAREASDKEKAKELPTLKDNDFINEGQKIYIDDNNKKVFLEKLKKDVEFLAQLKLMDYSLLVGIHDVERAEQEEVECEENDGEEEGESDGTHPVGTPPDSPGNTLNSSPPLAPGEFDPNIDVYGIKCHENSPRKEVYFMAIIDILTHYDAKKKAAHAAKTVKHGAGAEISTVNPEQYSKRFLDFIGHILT
# Sequence of Myosin light chain kinase family member 4 (Q86YV6 whole entry): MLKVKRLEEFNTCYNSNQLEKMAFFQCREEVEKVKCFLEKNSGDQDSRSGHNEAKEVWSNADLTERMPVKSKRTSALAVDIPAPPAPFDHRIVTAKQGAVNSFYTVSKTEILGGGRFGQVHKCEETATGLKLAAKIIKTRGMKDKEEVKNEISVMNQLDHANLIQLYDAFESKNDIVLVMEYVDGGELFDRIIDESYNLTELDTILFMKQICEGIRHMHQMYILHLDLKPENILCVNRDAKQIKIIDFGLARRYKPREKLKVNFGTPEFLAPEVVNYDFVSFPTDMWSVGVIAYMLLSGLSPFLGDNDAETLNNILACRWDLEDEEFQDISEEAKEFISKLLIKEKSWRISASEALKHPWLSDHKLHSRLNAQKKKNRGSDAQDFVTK
structure (smiles),measurement,setting,value
CCN(CC)CCCCNc1ncc2cc(-c3cc(OC)cc(OC)c3)c(NC(=O)NC(C)(C)C)nc2n1,% of control,[1],100%
CN(C)CC#Cc1ccc2[nH]c3c(c2c1)-c1nc(N)ncc1CCC3,IC50,[2],270 nM
C=CC(=O)Nc1cccc(C(=O)Nc2ccc(Nc3cc(-c4[nH]c(SC)nc4C)ccn3)cc2)c1,% of control,[3]; at 1 µM,48%
same,% of control,[3]; at 5 µM,15%
CCn1c(-c2nc3cc(C(=O)N4CCCC(N)C4)ccc3n2C)cc2ccccc21 (centres undefined),pXC50,[4],4.5 M
O=C(NOC[C@H](O)CO)c1ccc(F)c(F)c1Nc1ccc(I)cc1F,% of control,[5],97%
Cc1cc([C@@H](C)Nc2ccccc2C(=O)O)c2nc(N3CCOCC3)cc(=O)n2c1 [AZD-6482],% of control,[6],100%
CC[C@@H]1[C@H](F)C(=O)N[C@@H]1COc1nccc2cc(C(N)=O)c(OC)cc12 [ZIMLOVISERTIB],% of inhibition,[7],85.9%
CNC(=O)Nc1ccc(-c2nc(N3CC4CCC(C3)O4)c3cnn(C4CCC5(CC4)OCCO5)c3n2)cc1,% of control,[8],82%
same,% of control,[9],93%
COCC(=O)NC/C=C/c1ccc2ncnc(Nc3ccc(Oc4ccc(C)nc4)c(C)c3)c2c1 [CP-724714],% of control,[10],100%
CN(C)C/C=C/C(=O)Nc1ccc(C(=O)N2CCCC(Nc3ncc(Cl)c(-c4c[nH]c5ccccc45)n3)C2)cc1 (centres undefined),% of control,[11],99%
Cc1cnc(Nc2ccc(F)cc2Cl)nc1-c1c[nH]c(C(=O)N[C@H](CO)c2cccc(Cl)c2)c1,% of inhibition,[12],7%
N#Cc1cccc(-c2c[nH]c3ncnc(N4CCOCC4)c23)c1,% of inhibition,[13],2%
